Legend:
[1] = test system: MEK; assay: Cellular Assay for Measuring MEK Inhibition (inhibition of ERK phosphorylation in C26 cells, Western blot); assay type: cell-based, murine; conditions: for IC50: inhibition of ERK phosphorylation in murine colon 26 (C26) carcinoma cells, determined graphically from dose response curve; for % Inhibition @ 0.1 μM / % Inhibition @ 1 μM / % Inhibition @ 10 μM: ERK phosphorylation in C26 cells
Procedure, shortened: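 Exponentially growing murine colon 26 (C26) carcinoma cells treated with varying compound concentrations at 37° C, then lysed. Western blot with antibody to dually phosphorylated ERK1/ERK2; blots stripped and re-probed for total ERK1/ERK2.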

| Structure (SMILES) | % Inhibition @ 0.1 μM [1] [%] | % Inhibition @ 1 μM [1] [%] | also measured |
| --- | --- | --- | --- |
| O=C(NOC[C@@H]1C[C@H]1CO)c1ccc(F)c(F)c1Nc1ccc(I)cc1F (relative stereo) [Example 74, 3,4-Difluoro-2-(2-fluoro-4-iodo-phenylamino)-N-[trans-(2-hydroxymethyl-cyclopropylmethoxy)]-benzamide] | – | – | IC50 [1]: 18 nM; melting point: 128.5 to 128.7 °C |
| O=C(NOC[C@@H]1C[C@H]1CO)c1cc(Cl)c(F)c(F)c1Nc1ccc(I)cc1F (relative stereo) [Example 75, 5-Chloro-3,4-difluoro-2-(2-fluoro-4-iodo-phenylamino)-N-[trans-(2-hydroxymethyl-cyclopropylmethoxy)]-benzamide] | – | – | IC50 [1]: 42 nM; melting point: 152.5 to 153.1 °C |
| O=C(NOCCO)c1cc(F)c(F)cc1Nc1ccc(I)cc1F [Example 18, 4,5-Difluoro-2-(2-fluoro-4-iodo-phenylamino)-N-(2-hydroxy-ethoxy)-benzamide] | – | – | melting point: 189.6 to 190.6 °C |
| O=C(NOCCCO)c1cc(Br)c(F)c(F)c1Nc1ccc(I)cc1Cl [Example 31, 5-Bromo-2-(2-chloro-4-iodo-phenylamino)-3,4-difluoro-N-(3-hydroxy-propoxy)-benzamide] | – | – | melting point: 120 to 121 °C |
| C=COCCONC(=O)c1ccc(F)c(F)c1Nc1ccc(I)cc1Cl [Example 56, 2-(2-Chloro-4-iodo-phenylamino)-3,4-difluoro-N-(2-vinyloxy-ethoxy)-benzamide] | – | – | melting point: 141.5 to 143 °C |
| C=COCCONC(=O)c1cc(Cl)c(F)c(F)c1Nc1ccc(I)cc1F [Example 60, 5-Chloro-3,4-difluoro-2-(2-fluoro-4-iodo-phenylamino)-N-(2-vinyloxy-ethoxy)-benzamide] | – | – | melting point: 119 to 120 °C |
| O=C(NOCC(O)CO)c1cc(Br)c(F)c(F)c1Nc1ccccc1F (stereo not drawn) [Example 84, 5-Bromo-N-(2,3-dihydroxy-propoxy)-3,4-difluoro-2-(2-fluoro-phenylamino)-benzamide] | – | – | melting point: 143.5 to 144.5 °C |
| COCCOCCONC(=O)c1cc(F)c(F)c(F)c1Nc1ccc(I)cc1Cl [Example 208, 2-(2-Chloro-4-iodo-phenylamino)-3,4,5-trifluoro-N-[2-(2-methoxy-ethoxy)-ethoxy]-benzamide] | – | – | IC50 [1]: 1030 nM |
| O=C(NOCC(O)C(F)(F)F)c1cc(F)c(F)c(F)c1Nc1ccc(I)cc1F (stereo not drawn) [Example 210, 3,4,5-Trifluoro-2-(2-fluoro-4-iodo-phenylamino)-N-(3,3,3-trifluoro-2-hydroxy-propoxy)-benzamide] | 79.7 | 99.2 | – |
| O=C(NOCC(O)C(F)(F)F)c1cc(Cl)c(F)c(F)c1Nc1ccc(F)cc1F (stereo not drawn) [Example 211, 5-Chloro-2-(2,4-difluoro-phenylamino)-3,4-difluoro-N-(3,3,3-trifluoro-2-hydroxy-propoxy)-benzamide] | – | 35 | % Inhibition @ 10 μM [1]: 71.9% |
| O=C(NOCC(O)C(F)(F)F)c1ccc(F)c(F)c1Nc1ccc(F)cc1F (stereo not drawn) [Example 212, 2-(2,4-Difluoro-phenylamino)-3,4-difluoro-N-(3,3,3-trifluoro-2-hydroxy-propoxy)-benzamide] | – | 20.1 | % Inhibition @ 10 μM [1]: 85.1% |
| O=C(NOCC(O)C(F)(F)F)c1ccc(F)c(F)c1Nc1ccc(Cl)cc1F (stereo not drawn) [Example 213, 2-(4-Chloro-2-fluoro-phenylamino)-3,4-difluoro-N-(3,3,3-trifluoro-2-hydroxy-propoxy)-benzamide] | 6.2 | 78.7 | – |
| O=C(NOCC1CC1CO)c1cc(Cl)c(F)c(F)c1Nc1ccc(F)cc1F (stereo not drawn) [Example 214, 5-Chloro-2-(2,4-difluoro-phenylamino)-3,4-difluoro-N-(2-hydroxymethyl-cyclopropylmethoxy)-benzamide] | – | 15.4 | % Inhibition @ 10 μM [1]: 38.2% |
| O=C(NOCC1CC1CO)c1ccc(F)c(F)c1Nc1ccc(F)cc1F (stereo not drawn) [Example 215, 2-(2,4-Difluoro-phenylamino)-3,4-difluoro-N-(2-hydroxymethyl-cyclopropylmethoxy)-benzamide] | – | 11.7 | % Inhibition @ 10 μM [1]: 84.8% |
| O=C(NOCC1CC1CO)c1ccc(F)c(F)c1Nc1ccc(Cl)cc1F (stereo not drawn) [Example 216, 2-(4-Chloro-2-fluoro-phenylamino)-3,4-difluoro-N-(2-hydroxymethyl-cyclopropylmethoxy)-benzamide] | 41.2 | 87.6 | – |
| O=C(NOCC1CC1CO)c1cc(F)c(F)cc1Nc1ccc(I)cc1F (stereo not drawn) [Example 217, 4,5-Difluoro-2-(2-fluoro-4-iodo-phenylamino)-N-(2-hydroxymethyl-cyclopropylmethoxy)-benzamide] | 26.9 | 93.1 | – |
| O=C(NOCC1(CO)CC1)c1ccc(F)c(F)c1Nc1ccc(I)cc1F [Example 218, 3,4-Difluoro-2-(2-fluoro-4-iodo-phenylamino)-N-(1-hydroxymethyl-cyclopropylmethoxy)-benzamide] | 87 | 96.9 | – |

| Structure (SMILES) | % Inhibition @ 0.1 μM [1] [%] | % Inhibition @ 1 μM [1] [%] | also measured |
| --- | --- | --- | --- |
| O=C(NOCC1(CO)CC1)c1cc(F)c(F)c(F)c1Nc1ccc(I)cc1F [Example 219, 3,4,5-Trifluoro-2-(2-fluoro-4-iodo-phenylamino)-N-(1-hydroxymethyl-cyclopropylmethoxy)-benzamide] | 65.3 | 96.2 | – |
| O=C(NOCC1(CO)CC1)c1cc(Br)c(F)c(F)c1Nc1ccc(I)cc1F [Example 220, 5-Bromo-3,4-difluoro-2-(2-fluoro-4-iodo-phenylamino)-N-(1-hydroxymethyl-cyclopropylmethoxy)-benzamide] | 35.4 | 88.8 | – |
| O=C(NOCC1(CO)CC1)c1cc(F)c(F)cc1Nc1ccc(I)cc1F [Example 221, 4,5-Difluoro-2-(2-fluoro-4-iodo-phenylamino)-N-(1-hydroxymethyl-cyclopropylmethoxy)-benzamide] | 46 | 92.4 | – |
| O=C(NOCC1(CO)CC1)c1ccc(F)c(F)c1Nc1ccc(F)cc1F [Example 222, 2-(2,4-Difluoro-phenylamino)-3,4-difluoro-N-(1-hydroxymethyl-cyclopropylmethoxy)-benzamide] | – | 9.6 | % Inhibition @ 10 μM [1]: 55.6% |
| O=C(NOCC1(CO)CC1)c1ccc(F)c(F)c1Nc1ccc(Br)cc1F [Example 223, 2-(4-Bromo-2-fluoro-phenylamino)-3,4-difluoro-N-(1-hydroxymethyl-cyclopropylmethoxy)-benzamide] | 5.2 | 56.7 | – |
| O=C(NOCC1(CO)CC1)c1ccc(F)c(F)c1Nc1ccc(Cl)cc1F [Example 224, 2-(4-Chloro-2-fluoro-phenylamino)-3,4-difluoro-N-(1-hydroxymethyl-cyclopropylmethoxy)-benzamide] | 0 | 18.1 | – |
| O=C(NOCC1(CO)CC1)c1cc(Cl)c(F)c(F)c1Nc1ccc(F)cc1F [Example 225, 5-Chloro-2-(2,4-difluoro-phenylamino)-3,4-difluoro-N-(1-hydroxymethyl-cyclopropylmethoxy)-benzamide] | 0 | 8.7 | % Inhibition @ 10 μM [1]: 36.9% |
| COCC(O)CONC(=O)c1ccc(F)c(F)c1Nc1ccc(F)cc1F (stereo not drawn) [Example 226, 2-(2,4-Difluoro-phenylamino)-3,4-difluoro-N-(2-hydroxy-3-methoxy-propoxy)-benzamide] | – | 41.5 | % Inhibition @ 10 μM [1]: 84.1% |
| COCC(O)CONC(=O)c1cc(Cl)c(F)c(F)c1Nc1ccc(F)cc1F (stereo not drawn) [Example 227, 5-Chloro-2-(2,4-difluoro-phenylamino)-3,4-difluoro-N-(2-hydroxy-3-methoxy-propoxy)-benzamide] | – | 24.2 | % Inhibition @ 10 μM [1]: 63% |
| COCC(O)CONC(=O)c1ccc(F)c(F)c1Nc1ccc(Br)cc1F (stereo not drawn) [Example 228, 2-(4-Bromo-2-fluoro-phenylamino)-3,4-difluoro-N-(2-hydroxy-3-methoxy-propoxy)-benzamide] | 48.6 | 92.4 | – |
| COCC(O)CONC(=O)c1ccc(F)c(F)c1Nc1ccc(Cl)cc1F (stereo not drawn) [Example 229, 2-(4-Chloro-2-fluoro-phenylamino)-3,4-difluoro-N-(2-hydroxy-3-methoxy-propoxy)-benzamide] | 9.8 | 76.5 | – |
| Cc1cc(I)ccc1Nc1c(C(=O)NOCCNc2ccccc2)cc(F)c(F)c1F [Example 230, 3,4,5-Trifluoro-2-(4-iodo-2-methyl-phenylamino)-N-(2-phenylamino-ethoxy)-benzamide] | – | – | IC50 [1]: 51 nM |
| Cc1cc(I)ccc1Nc1c(C(=O)NOCCNc2ccccc2)cc(Br)c(F)c1F [Example 231, 5-Bromo-3,4-difluoro-2-(4-iodo-2-methyl-phenylamino)-N-(2-phenylamino-ethoxy)-benzamide] | – | – | IC50 [1]: 67 nM |
| O=C(NOCCNc1ccccc1)c1ccc(F)c(F)c1Nc1ccc(I)cc1Cl [Example 232, 2-(2-Chloro-4-iodo-phenylamino)-3,4-difluoro-N-(2-phenylamino-ethoxy)-benzamide] | – | – | IC50 [1]: 22 nM |
| O=C(NOCCNc1ccccc1)c1cc(F)c(F)c(F)c1Nc1ccc(I)cc1Cl [Example 233, 2-(2-Chloro-4-iodo-phenylamino)-3,4,5-trifluoro-N-(2-phenylamino-ethoxy)-benzamide] | – | – | IC50 [1]: 33 nM |
| Cc1cc(I)ccc1Nc1c(C(=O)NOCCNc2ccccc2)ccc(F)c1F [Example 234, 3,4-Difluoro-2-(4-iodo-2-methyl-phenylamino)-N-(2-phenylamino-ethoxy)-benzamide] | – | – | IC50 [1]: 54 nM |
| O=C(NOCCNc1ccccc1)c1cc(Br)c(F)c(F)c1Nc1ccc(I)cc1Cl [Example 235, 5-Bromo-2-(2-chloro-4-iodo-phenylamino)-3,4-difluoro-N-(2-phenylamino-ethoxy)-benzamide] | – | – | IC50 [1]: 62 nM |
